Test results reported in patent publication US12097199B2, “Administration of SUMO-activating enzyme inhibitor and anti-CD20 antibodies” (Takeda Pharmaceutical Company Limited, priority 2018, dated 2024).

How the values were obtained:
[1] = system: OCI-Ly10 human diffuse large B-cell lymphoma xenograft; assay: Study 1: OCI-Ly10 xenograft model, in vivo tumor efficacy; parameters: species or system SCID mice; settings: for TGI %: Day 21; for dAUC: unit assumed
Procedure: OCI-Ly 10 Study 1: OCI-Ly 10 is a human diffuse large B-cell lymphoma cell-line derived xenograft. 6 week old female SCID mice (Beijing HFK Bioscience Co., Ltd.) were inoculated subcutaneously in the right flank (cell suspension) with 4×10^6 OCI-Ly10 cells. When the mean tumor volume reached approximately 200 mm^3, the animals were randomized into treatment and control groups (n=7/group). Tumor growth inhibition and body weight change were calculated on Day 21 of treatment.
(§1) Final doses received were 25 mg/kg or 15 mg/kg, respectively.
(§2) Tumors were measured twice weekly using vernier calipers. Tumor volumes were calculated using standard procedures V=W^2×L/2, where V=volume, W=width, and L=length for the tumor xenograft. […] Tumor size and body weight were measured twice a week for the duration of the study. Mice were euthanized when the average tumor volume of a treatment or control group reached approximately 1000 mm^3 or when an individual tumor exceeded the humane end-point for size.
(§3) These values were compared across treatment groups to assess whether the differences in the trends over time were statistically significant. To compare pairs of treatment groups, the following mixed-effects linear regression model was fit to the data using the maximum likelihood method: Yijk−Yi0k=Yi0k+treati+dayi+dayj^2+(treat*day)ij+(treat*day^2)ij+eijk (1) where Yijk is the log10 tumor value at the j^th time point of the k^th animal in the i^th treatment, Yi0k is the day 0 (baseline) log10 tumor value in the k^th animal in the i^th treatment, day, was the median-centered time point and (along with dayj^2) was treated as a continuous variable, and eijk is the residual error. A spatial power law covariance matrix was used to account for the repeated measurements on the same animal over time. Interaction terms as well as dayj^2 terms were removed if they were not statistically significant.
(§4) The predicted differences in the log tumor values (Yijk−Yi0k, which can be interpreted as log10 (fold change from day 0)) were taken from the above models to calculate mean AUC values for each treatment group. A dAUC value was then calculated as: […]
(§5) For synergy analyses, the observed differences in the log tumor values were used to calculate AUC values for each animal. […] The AUC for the control, or vehicle, group was calculated using the predicted values from the pairwise models described above. We defined a measure of synergy as follows:
(§6) The effect was classified into four different categories. It was considered synergistic if the synergy score was less than 0 and additive if the synergy score wasn't statistically different from 0.
(§7) One group served as the vehicle-treated group (Group 1) receiving IV treatment with the vehicle for I-263a (20% HPβCD) on a QW schedule.

[2] = system: OCI-Ly10 human diffuse large B-cell lymphoma xenograft; assay: Study 2: OCI-Ly10 xenograft model, in vivo tumor efficacy; parameters: species or system SCID mice; settings: for TGI %: Day 21
Procedure: OCI-Ly10 Study 2: OCI-Ly 10 is a human diffuse large B-cell lymphoma cell-line derived xenograft. 8 week old female SCID mice (Beijing HFK Bioscience Co., Ltd.) were inoculated subcutaneously in the right flank (cell suspension) with 4×10^6 OCI-Ly 10 cells. When the mean tumor volume reached approximately 200 mm^3, the animals were randomized into treatment and control groups (n=8/group). Tumor growth inhibition and body weight change were calculated on Day 21 of treatment.
Final doses received were 10 mg/kg or 5 mg/kg, respectively.
as §2, §3, §4, §5, §6
In the OCI-Ly 10 diffuse large B-cell lymphoma xenograft model, mice were inoculated, randomized on Day 0 (30 days post inoculation), and treatments began on Day 1 for all groups. […] One group served as the vehicle-treated group (Group 1) receiving IV treatment with the vehicle for I-263a (20% HPβCD) on a QW schedule.

[3] = system: WSU-DLCL2 human diffuse large B-cell lymphoma xenograft; assay: Study 3: WSU-DLCL2 xenograft model, in vivo tumor efficacy; parameters: species or system SCID mice
Procedure: WSU-DLCL2 Study 3: WSU-DLCL2 is a human diffuse large B-cell lymphoma cell-line derived xenograft. 7 week old female SCID mice (Charles River Laboratories) were inoculated subcutaneously in the right flank (cell suspension with 4.0×10^6 cells). When the mean tumor volume reached approximately 200 mm^3, the animals were randomized into treatment groups and control groups (n=8/group). Tumor growth inhibition and body weight change were calculated on Day 21 of treatment. Tumor volumes below the humane end-point for size were continually monitored following the end of treatment (post-treatment period) for an additional week.
as §2, §3, §4, §5, §6
In the WSU-DLCL2 diffuse large B-cell lymphoma xenograft model, mice were inoculated, randomized on Day 0 (8 days post inoculation), and treatments began on Day 1 for all groups. […] One group served as the vehicle-treated group (Group 1) receiving IV treatment with the vehicle for I-263a (20% HPβCD) on a QW schedule.

[4] = system: TMD8 human diffuse large B-cell lymphoma xenograft; assay: Study 4: TMD8 xenograft model, in vivo tumor efficacy; parameters: species or system SCID mice; settings: for TGI %: Day 18
Procedure: TMD8 Study 4: TMD8 is a human diffuse large B-cell lymphoma cell-line derived xenograft. 8 week old female SCID mice (Beijing HFK Bioscience Co., Ltd) were inoculated subcutaneously in the right flank (cell suspension with 4×10^6 cells). When the mean tumor volume reached approximately 190 mm^3, the animals were randomized into treatment groups and control groups (n=8/group). Tumor growth inhibition and body weight change were calculated on Day 18 of treatment. Tumor volumes below the humane end-point for size were continually monitored following the end of treatment (post-treatment period) for an additional week.
as §1, §2, §3, §4, §5, §6
In the TMD8 diffuse large B-cell lymphoma xenograft model, mice were inoculated, randomized on Day 0 (10 days post inoculation), and treatments began on Day 1 for all groups. […] One group served as the vehicle-treated group (Group 1) receiving IV treatment with the vehicle for I-263a (20% HPβCD) on a QW schedule.

[5] = system: PHTX-166L human patient-derived B-cell lymphoma primary xenograft; assay: Study 5: PHTX-166L primary xenograft model, in vivo tumor efficacy; parameters: species or system mice; settings: for TGI %: Day 11
Procedure: PHTX-166L Study 5: PHTX-166L is a human patient-derived B-cell lymphoma primary xenograft. Small tumor pieces measuring approximately 2 mm×2 mm were implanted subcutaneousy on the right flank via trocar injection. When the mean tumor volume reached approximately 160 mm^3, the animals were randomized into treatment groups and control groups (n=7/group). Tumor growth inhibition and body weight change were calculated on Day 11 of treatment. Tumor volumes below the humane end-point for size were continually monitored following the end of treatment (post-treatment period) until Day 146 post treatment initiation.
as §2, §3, §4, §5, §6
In the PHTX-166L patient-derived primary B-cell lymphoma xenograft model, mice were inoculated, randomized on Day 0 (24 days post inoculation), and treatments began on Day 1 for all groups. […] One group served as the vehicle-treated group (Group 1) receiving IV treatment with the vehicle for I-263a (20% HPβCD) on a QW schedule.

[6] = system: PHTX-166L human patient-derived primary B-cell lymphoma xenograft; assay: Study 6: PHTX-166L primary xenograft model, in vivo tumor efficacy; parameters: species or system mice
Procedure: Small tumor pieces measuring approximately 2 mm×2 mm were implanted subcutaneousy on the right flank via trocar injection.
as §2, §3, §4, §5, §6, §7

[7] = target: SUMO-activating enzyme (Homo sapiens, UniProt Q9UBT2); assay: Biochemical assays of SUMO-activating enzyme inhibition
Excerpt: (§8) SAE inhibitors, as disclosed herein, are described, for example, in US 2016/0009744 and U.S. Pat. No. 9,695,154. They may be prepared by methods known to one skilled in the art and/or according to the methods described in US 2016/0009744 and U.S. Pat. No. 9,695,154, which is hereby incorporated by reference in its entirety. Central to the mechanism of action of useful SAE inhibitors, such as Compound I-263a, in combinations and methods of the present disclosure is production of type 1 IFNs and induction of an innate immune response with activation of both natural killer (NK) cells and macrophages.

[8] = system: SUMO-activating enzyme and SUMOylation; assay: Inhibition of SAE and SUMOylation in cultured tumor cell lines; assay type: cell-based; settings: cultured mouse and human tumor cell lines
Excerpt: as §8

[9] = single-agent I-263a (25 and 15 mg/kg)
[10] = Group C: I-263a 12.5 mg/kg IV QW
[11] = Group B: I-263a 5.0 mg/kg IV QW

Sequence of SUMO-activating enzyme (Q9UBT2 whole entry): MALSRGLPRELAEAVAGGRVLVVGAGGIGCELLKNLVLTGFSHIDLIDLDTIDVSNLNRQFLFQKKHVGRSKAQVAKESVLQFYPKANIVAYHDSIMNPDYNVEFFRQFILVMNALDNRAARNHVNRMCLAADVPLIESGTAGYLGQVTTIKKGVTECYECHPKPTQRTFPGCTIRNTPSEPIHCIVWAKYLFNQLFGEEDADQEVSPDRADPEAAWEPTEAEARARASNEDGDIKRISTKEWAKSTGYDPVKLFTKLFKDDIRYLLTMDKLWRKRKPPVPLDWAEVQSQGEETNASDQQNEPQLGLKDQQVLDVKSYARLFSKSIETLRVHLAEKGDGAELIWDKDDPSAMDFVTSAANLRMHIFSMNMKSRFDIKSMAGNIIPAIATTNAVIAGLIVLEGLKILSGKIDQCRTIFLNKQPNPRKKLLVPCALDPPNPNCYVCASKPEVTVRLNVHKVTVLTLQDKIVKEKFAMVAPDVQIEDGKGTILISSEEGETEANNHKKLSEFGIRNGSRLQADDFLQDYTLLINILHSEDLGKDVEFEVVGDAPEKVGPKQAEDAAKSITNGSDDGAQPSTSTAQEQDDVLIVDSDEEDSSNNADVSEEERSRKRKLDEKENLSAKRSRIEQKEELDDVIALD
Sequence of SUMO-activating enzyme (Q9UBE0 whole entry partner): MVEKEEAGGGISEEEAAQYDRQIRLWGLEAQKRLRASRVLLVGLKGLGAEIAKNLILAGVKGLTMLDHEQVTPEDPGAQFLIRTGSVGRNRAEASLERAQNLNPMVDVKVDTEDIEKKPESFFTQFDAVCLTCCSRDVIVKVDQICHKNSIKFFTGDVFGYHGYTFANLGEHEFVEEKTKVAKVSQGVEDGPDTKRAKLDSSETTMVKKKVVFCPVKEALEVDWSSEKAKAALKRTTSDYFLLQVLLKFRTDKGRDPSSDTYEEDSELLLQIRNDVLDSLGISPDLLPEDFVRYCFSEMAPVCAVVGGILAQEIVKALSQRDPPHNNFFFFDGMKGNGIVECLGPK
Sequence of SUMO-activating enzyme (P63165 1-97 partner limits assumed): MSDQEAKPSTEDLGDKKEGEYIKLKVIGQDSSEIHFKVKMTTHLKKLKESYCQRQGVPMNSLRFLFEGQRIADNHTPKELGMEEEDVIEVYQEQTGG

Cc1sc(C(=O)c2cncnc2N[C@@H]2C[C@H](COS(N)(=O)=O)[C@@H](O)C2)cc1[C@@H]1NCCc2ccc(Cl)cc21 [Compound I-263a, [(1R,2S,4R)-4-{[5-({4-[(1R)-7-chloro-1,2,3,4-tetrahydroisoquinolin-1-yl]-5-methyl-2-thienyl}carbonyl)pyrimidin-4-yl]amino}-2-hydroxycyclopentyl]methyl sulfamate]
Days to 1000 mm^3 MTV ([1]; Group B: I-263a 25 mg/kg IV QW): 39 days
Tumor volume on Day 21 (±SEM) ([1]; Group B: I-263a 25 mg/kg IV QW): 409.7 ± 19.2 mm^3
TGI % ([1]; Group B: I-263a 25 mg/kg IV QW): 31.3%
dAUC ([1]; Group B: I-263a 25 mg/kg IV QW): 23.6%
Days to 1000 mm^3 MTV ([1]; Group C: I-263a 15 mg/kg IV QW): 37.6 days
Tumor volume on Day 21 (±SEM) ([1]; Group C: I-263a 15 mg/kg IV QW): 443.7 ± 12.3 mm^3
TGI % ([1]; Group C: I-263a 15 mg/kg IV QW): 25.6%
dAUC ([1]; Group C: I-263a 15 mg/kg IV QW): 21.4%
Day by which all mice were euthanized (group reached 1000 mm^3 or humane end-point for size) [1, 9]: ≤ 120 days
Days to 1000 mm^3 MTV ([2]; Group B: I-263a 10 mg/kg IV QW): 32.1 days
Tumor volume on Day 21 (±SEM) ([2]; Group B: I-263a 10 mg/kg IV QW): 706.9 ± 51.3 mm^3
dAUC ([2]; Group B: I-263a 10 mg/kg IV QW): 25.6
TGI % ([2]; Group B: I-263a 10 mg/kg IV QW): 41.3%
Days to 1000 mm^3 MTV ([2]; Group C: I-263a 5 mg/kg IV QW): 28.7 days
Tumor volume on Day 21 (±SEM) ([2]; Group C: I-263a 5 mg/kg IV QW): 759.3 ± 33.2 mm^3
dAUC ([2]; Group C: I-263a 5 mg/kg IV QW): 26.8
TGI % ([2]; Group C: I-263a 5 mg/kg IV QW): 37%
Day by which all mice were euthanized (group reached 1000 mm^3 or humane end-point for size) ([2]; single-agent I-263a (10 and 5 mg/kg)): ≤ 35 days
Days to 1000 mm^3 MTV ([3]; Group B: I-263a 5 mg/kg IV QW): 17.2 days
Tumor volume on Day 21 (±SEM) ([3]; Group B: I-263a 5 mg/kg IV QW): 1340.3 ± 188.1 mm^3
dAUC ([3]; Group B: I-263a 5 mg/kg IV QW): 28.1
TGI % ([3]; Group B: I-263a 5 mg/kg IV QW, Day 21): 37.6%
Day by which all mice were euthanized (group reached 1000 mm^3 or humane end-point for size) ([3]; single-agent I-263a 5 mg/kg): ≤ 24 days
Days to 1000 mm^3 MTV ([4]; Group B: I-263a 25 mg/kg IV QW): 14.1 days
Tumor volume on Day 18 (±SEM) ([4]; Group B: I-263a 25 mg/kg IV QW): 1297.4 ± 120.2 mm^3
dAUC ([4]; Group B: I-263a 25 mg/kg IV QW): 13.6
TGI % ([4]; Group B: I-263a 25 mg/kg IV QW): 27.8%
Days to 1000 mm^3 MTV ([4]; Group C: I-263a 15 mg/kg IV QW): 12.8 days
Tumor volume on Day 18 (±SEM) ([4]; Group C: I-263a 15 mg/kg IV QW): 1604.1 ± 144.7 mm^3
dAUC ([4]; Group C: I-263a 15 mg/kg IV QW): 10.1
TGI % ([4]; Group C: I-263a 15 mg/kg IV QW): 10.7%
Day by which all mice were euthanized (group reached 1000 mm^3 or humane end-point for size) [4, 9]: ≤ 120 days
Days to 1000 mm^3 MTV ([5]; Group B: I-263a 25 mg/kg IV QW): >18 days
dAUC ([5]; Group B: I-263a 25 mg/kg IV QW): 45.0
Tumor volume on Day 11 (±SEM) ([5]; Group B: I-263a 25 mg/kg IV QW (Days 1 and 8)): 540.2 ± 58.5 mm^3
TGI % ([5]; Group B: I-263a 25 mg/kg IV QW): 72%
Days to 1000 mm^3 MTV [5, 10]: 13.2 days
dAUC [5, 10]: 35.4
Tumor volume on Day 11 (±SEM) ([5]; Group C: I-263a 12.5 mg/kg IV QW (Days 1 and 8)): 758.2 ± 104.7 mm^3
TGI % [5, 10]: 60.6%
Days to 1000 mm^3 MTV [6, 11]: 9.1 days
dAUC [6, 11]: 34.3
Tumor volume on Day 9 (±SEM) ([6]; Group B: I-263a 5.0 mg/kg IV QW (Days 1 and 8)): 992.2 ± 115.2 mm^3
TGI % ([6]; Group B: I-263a 5.0 mg/kg IV QW, Day 9): 51.4%
Inhibition of SUMO-activating enzyme activity ([7]; mechanism-based inhibitor forming a covalent adduct with SUMO): potently inhibits enzyme activity
Selectivity for SUMO-activating enzyme ([7]; over ubiquitin-activating enzyme, Nedd8-activating enzyme, and autophagy related 7 enzyme): Strong selectivity
Inhibition of SUMO-activating enzyme and SUMOylation in cells [8]: Selective and potent inhibition
